From patent publication US20230203096A1, “EPHA4 TARGETING COMPOUNDS AND METHODS OF USE THEREOF” (priority 2020, published 2023)
Square brackets hold non-standard residues; d marks the D form. Peptide text beside a SMILES is read from it. * marks the point of attachment. Cyclohexanoyl(1S,3S-3-NH2) = N[C@H]1CCC[C@H](C(=O)*)C1; Trp(5-OH) = N[C@@H](Cc1c[nH]c2ccc(O)cc12)C(=O)O; NH(4-morpholinophenyl) = c1cc(N2CCOCC2)ccc1N*; Bip = N[C@@H](Cc1ccc(-c2ccccc2)cc1)C(=O)O; hArg = N=C(N)NCCCC[C@H](N)C(=O)O

Key:
EphA4 = EphA4 (Mus musculus, UniProt Q03137); experiment: EphA4 phosphorylation in primary spinal cord motor neurons (IP/western blot); settings: 1 μM or 10 μM, 30 min
Sequence of EphA4 (Q03137 20-986): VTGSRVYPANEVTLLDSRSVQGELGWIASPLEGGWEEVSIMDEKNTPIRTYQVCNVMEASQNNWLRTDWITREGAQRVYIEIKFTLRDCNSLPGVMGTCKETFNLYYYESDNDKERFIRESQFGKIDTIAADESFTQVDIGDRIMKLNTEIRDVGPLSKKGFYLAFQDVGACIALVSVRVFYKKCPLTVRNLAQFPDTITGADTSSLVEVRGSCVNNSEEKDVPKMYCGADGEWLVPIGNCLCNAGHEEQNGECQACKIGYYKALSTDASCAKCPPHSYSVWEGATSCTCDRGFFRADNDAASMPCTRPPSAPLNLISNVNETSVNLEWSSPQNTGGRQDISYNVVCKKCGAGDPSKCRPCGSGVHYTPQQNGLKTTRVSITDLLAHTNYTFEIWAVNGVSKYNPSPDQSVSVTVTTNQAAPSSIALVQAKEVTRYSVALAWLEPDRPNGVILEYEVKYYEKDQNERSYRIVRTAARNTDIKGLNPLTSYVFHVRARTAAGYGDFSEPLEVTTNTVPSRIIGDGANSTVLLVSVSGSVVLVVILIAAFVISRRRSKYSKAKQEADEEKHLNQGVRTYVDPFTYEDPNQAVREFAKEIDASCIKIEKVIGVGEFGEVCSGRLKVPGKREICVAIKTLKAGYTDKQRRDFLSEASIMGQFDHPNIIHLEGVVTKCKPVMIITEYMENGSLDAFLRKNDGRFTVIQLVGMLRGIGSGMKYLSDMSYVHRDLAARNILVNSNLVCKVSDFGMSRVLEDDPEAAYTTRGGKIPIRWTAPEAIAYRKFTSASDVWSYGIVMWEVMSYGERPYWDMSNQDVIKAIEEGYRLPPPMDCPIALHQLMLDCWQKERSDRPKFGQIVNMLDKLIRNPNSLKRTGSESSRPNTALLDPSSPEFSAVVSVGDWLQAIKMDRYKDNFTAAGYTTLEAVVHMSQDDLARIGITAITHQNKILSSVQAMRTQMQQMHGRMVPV

[1] = tested on: primary spinal cord motor neurons; experiment: Growth cone collapse in primary spinal cord motor neurons; settings: 1 μM and 10 μM 150D4, 2 DIV neurons
EphA4-LBD and ephrinA5 = molecular target: T1, EphA4-LBD and ephrinA5 (Homo sapiens, UniProt P54764, C204A); experiment: ephrinA5 displacement by 2D [13C,1H] correlation NMR; format: binding; settings: ^1H] correlation spectra
T1 construct: His tag (N); made in house; host or cells: E. coli Rosetta-Gami B(DE3) for EphA4-LBD; ephrin-A5 purchased from Sino Biological US Inc (catalogue number not given)
T1 sequence (P54764 29-209 C204A): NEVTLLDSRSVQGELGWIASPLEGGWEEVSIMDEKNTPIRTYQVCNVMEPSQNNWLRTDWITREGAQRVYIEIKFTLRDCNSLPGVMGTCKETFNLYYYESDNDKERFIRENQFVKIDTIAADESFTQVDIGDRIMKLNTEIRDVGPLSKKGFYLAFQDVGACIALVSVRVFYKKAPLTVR
Experimental: NMR spectra were acquired on Bruker Avance III 700 MHz spectrometer equipped with a TCI cryoprobe. All NMR data were processed and analyzed using TOPSPIN 3.6.1 (Bruker, Billerica, Mass., USA). 2D-[^13C,^1H]-HSQC experiments were acquired with 20 μM proteins using 8 scans with 2,048 and 256 complex data points in the ^1H and […] dimensions, respectively, at 298 K. For the 150D4 NMR titrations in FIG. 8 2D-[^13C,^1H]-HSQC experiments were acquired using 16 scans per increment, and for ephrinA5 binding studies (FIG. 8) with 10 μM protein, using 32 scans per increment.

Q: N=C(N)NCCCC[C@H](NC(=O)[C@H](Cc1ccc(-c2ccccc2)cc1)NC(=O)[C@H](Cc1c[nH]c2ccc(O)cc12)NC(=O)[C@H]1CCC[C@H](N)C1)C(=O)NCC(=O)Nc1ccc(N2CCOCC2)cc1 [Compound 8, (1S,3S)—N—((S)-1-(((S)-3-([1,1′-biphenyl]-4-yl)-1-(((S)-6-guanidino-1-((2-((4-morpholinophenyl)amino)-2-oxoethyl)amino)-1-oxohexan-2-yl)amino)-1-oxopropan-2-yl)amino)-3-(5-hydroxy-1H-indol-3-yl)-1-oxopropan-2-yl)-3-aminocyclohexane-1-carboxamide] ({Cyclohexanoyl(1S,3S-3-NH2)}-[Trp(5-OH)][Bip][hArg]G-{NH(4-morpholinophenyl)}) was tested. Which “EphA4 receptor phosphorylation (pEphA4/total EphA4)” value (EphA4) did it give?
A: more significantly active than others

Q: And the growth cone collapse [1]?
A: effective in inducing growth cone collapse

Q: And the “displacement of ephrinA5 binding to EphA4-LBD” value (EphA4-LBD and ephrinA5)?
A: efficiently displaces the binding of ephrinA5
